Data: patent US20100048575A1, “NOVEL TETRACYCLIC INHIBITORS OF CYSTEINE PROTEASES, THE PHARMACEUTICAL COMPOSITIONS THEREOF AND THEIR THERAPEUTIC APPLICATIONS” (priority 2006, published 2010)
pIC50: −log10 of the molar value.

Biological target: T1, USP7 (Homo sapiens, UniProt Q93009)
T1 construct: His tag (from vector pFastBac-HT) (N); made in house; host or cells: insect cells (Sf9 or High Five), baculovirus
Assay: USP7 activity assay (Ub-AMC)
Type: biochemical
Conditions: 400 nM Ub-AMC, 152 pM enzyme, 30 min pre-incubation, 60 min at 37° C., sigmoidal fit; read-out: USP7 (inhibition of cysteine protease activity)
Excerpt: The cDNA encoding USP7 was obtained by PCR amplification from placenta mRNA. USP7 cDNA was subcloned by PCR into a baculovirus expression vector (pFastBac-HT; Invitrogen). A cDNA encoding a mutated USP7 was generated by mutagenic PCR. The corresponding protein encodes a cysteine to alanine substitution at residue 223. The sequences were ascertained by sequencing of the entire open reading frame. Bacmids encoding […] were generated following DH10bac transposition. The corresponding bacmids were transfected into insect cells (Sf9). Viruses were recovered from culture supernatant and amplified twice. Insect cells (Sf9 or High Five; Invitrogen) were infected for 72 hours. Total cell lysates were harvested and lyzed in lysis buffer-(Tris HCl 50 mM pH7.6; 0.75% NP40; 500 mM NaCl; 10% glycerol; 1 mM DTT; 10 mM imidazole; Protease Inhibitor Cocktail; AEBSF 20 μg.ml^−1; Aprotinin 10 μg.ml^−1). Proteins were affinity purified on metal affinity resins (Talon Metal affinity resin; BD Biosciences). Bound materials were extensively washed in wash buffer (50 mM Sodium Phosphate pH7.0; 300 mM NaCl; 10 mM imidazole; 0.5% Triton X-100; 10% glycerol) and eluted from the resin in 250 mM imidazole-containing wash buffer. Proteins were dialyzed in dialysis buffer (Tris HCl pH 7.6 20 mM; NaCl 200 mM; DTT 1 mM; EDTA 1 mM; 10% Glycerol). Proteins purifications were analyzed on 4-12% NuPAGE (Invitrogen).
USP7 was diluted in USP buffer (50 mM Tris HCl; 0.5 mM EDTA; 5 mM DTT; 0.01% Triton X-100; Bovine Serum Albumin 0.05 mg.ml^−1 pH7.6). Compounds stocks (100 mM) were stored at −20° C. in DMSO. Compounds were tested at the following final concentrations: 100 μM; 33.3 μM; 11.1 μM; 3.7 μM; 1.23 μM; 412 nM; 137 nM; 45.7 nM; 15.2 nM; 5 nM.
Reactions were performed as duplicates in Black LJL 96 well plates (HE microplates; Molecular Devices; 20 μl final reaction volume). The substrate concentration for USP7 was 400 nM Ub-AMC (Chem. Biol., 2003, 10, p. 837-846) (Boston Biochem). The concentrations of the enzyme (USP7) in specificity assays was 152 pM. The concentrations were determined in order to perform specificity assays under initial velocities at fixed substrate concentration. Compounds were pre-incubated with enzymes for 30 minutes at 25° C. Reactions were initiated by addition of substrate to the plates containing the enzymes (+/−compounds) diluted in assay buffer. Reactions were incubated for 60 minutes at 37° C. Reactions were stopped by adding acetic acid (100 mM final). Readings were performed on a Pherastar Fluorescent Reader (BMG). λ Emission 380 nm; λ Excitation=460 nm. Data (mean values +/−standard deviation) were analyzed as % of control (no compound) and plotted as percentage versus the Log of the compound concentration using GraphPad (Prism). Data were fitted to a sigmoidal model (variable slope).

T1 sequence (Q93009 whole entry): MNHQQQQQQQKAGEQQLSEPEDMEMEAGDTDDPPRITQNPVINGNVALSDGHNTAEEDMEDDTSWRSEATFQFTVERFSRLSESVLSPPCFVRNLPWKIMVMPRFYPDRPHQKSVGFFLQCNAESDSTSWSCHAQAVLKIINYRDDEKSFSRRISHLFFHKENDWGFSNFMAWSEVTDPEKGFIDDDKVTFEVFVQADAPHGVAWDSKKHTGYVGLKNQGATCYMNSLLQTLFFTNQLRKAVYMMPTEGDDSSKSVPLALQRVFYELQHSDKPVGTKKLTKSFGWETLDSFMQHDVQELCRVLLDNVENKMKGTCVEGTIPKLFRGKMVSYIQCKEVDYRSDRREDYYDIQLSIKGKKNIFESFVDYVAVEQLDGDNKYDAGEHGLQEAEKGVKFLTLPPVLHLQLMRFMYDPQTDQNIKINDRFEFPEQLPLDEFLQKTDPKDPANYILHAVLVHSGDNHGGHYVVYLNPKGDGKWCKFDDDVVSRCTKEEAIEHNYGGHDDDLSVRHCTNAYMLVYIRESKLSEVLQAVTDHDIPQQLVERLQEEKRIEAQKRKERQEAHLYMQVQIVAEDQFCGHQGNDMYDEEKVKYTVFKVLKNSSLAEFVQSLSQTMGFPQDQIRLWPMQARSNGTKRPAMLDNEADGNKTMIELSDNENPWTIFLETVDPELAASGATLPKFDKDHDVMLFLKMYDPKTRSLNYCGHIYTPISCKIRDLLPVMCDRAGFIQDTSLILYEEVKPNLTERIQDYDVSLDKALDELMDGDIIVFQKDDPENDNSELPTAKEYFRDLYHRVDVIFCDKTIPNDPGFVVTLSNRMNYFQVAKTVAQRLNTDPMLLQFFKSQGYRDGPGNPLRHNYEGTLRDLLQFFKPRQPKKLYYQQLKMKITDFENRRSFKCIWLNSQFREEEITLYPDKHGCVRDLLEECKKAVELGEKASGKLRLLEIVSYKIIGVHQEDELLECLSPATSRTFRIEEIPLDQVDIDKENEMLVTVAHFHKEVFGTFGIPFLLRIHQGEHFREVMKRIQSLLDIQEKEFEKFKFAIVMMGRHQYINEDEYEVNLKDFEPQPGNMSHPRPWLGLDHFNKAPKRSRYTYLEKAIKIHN

pIC50	Compound
5.14	CCc1nnc2nc3c(nn12)-c1ccccc1C3=NOCc1ccccc1 (mixture of isomers) [10h, 3-Ethyl-1,2,3a,4,10-pentaaza-cyclopenta[b]fluoren-9-one O-benzyl-oxime]
5.40	CON=C1c2ccccc2-c2nn3c(C)nnc3nc21 (mixture of isomers) [5a, 3-Methyl-1,2,3a,4,10-pentaaza-cyclopenta[b]fluoren-9-one O-methyl-oxime]
5.32	CCc1nnc2nc3c(nn12)-c1ccccc1C3=NOC (mixture of isomers) [10b, 3-Ethyl-1,2,3a,4,10-pentaaza-cyclopenta[b]fluoren-9-one O-methyl-oxime]
5.50	C=CCON=C1c2ccccc2-c2nn3c(C)nnc3nc21 (mixture of isomers) [5b, 3-Methyl-1,2,3a,4,10-pentaaza-cyclopenta[b]fluoren-9-one O-allyl-oxime]
5.51	CCON=C1c2ccccc2-c2nn3c(CC)nnc3nc21 (mixture of isomers) [10d, 3-Ethyl-1,2,3a,4,10-pentaaza-cyclopenta[b]fluoren-9-one O-ethyl-oxime]
6.52	C=CCON=C1c2ccccc2-c2nn3nnnc3nc21 (mixture of isomers) [compound 6, 1,2,3,3a,4,10-hexaaza-cyclopenta[b]fluoren-9-one O-allyl-oxime]
5.49	C=CCON=C1c2ccccc2-c2nn3c(CC)nnc3nc21 (mixture of isomers) [10f, 3-Ethyl-1,2,3a,4,10-pentaaza-cyclopenta[b]fluoren-9-one O-allyl-oxime]
5.75	c1ccc(OCCCON=C2c3ccccc3-c3nn4nnnc4nc32)cc1 (mixture of isomers) [8c, 1,2,3,3a,4,10-Hexaaza-cyclopenta[b]fluoren-9-one O-(3-phenoxy-propyl)-oxime]
6.33	COCCON=C1c2ccccc2-c2nn3nnnc3nc21 (mixture of isomers) [8b, 1,2,3,3a, 4,10-Hexaaza-cyclopenta[b]fluoren-9-one O-(2-methoxy-ethyl)-oxime]
6.18	ON=C1c2ccccc2-c2nn3nnnc3nc21 (mixture of isomers) [compound 7, 1,2,3,3a,4,10-hexaaza-cyclopenta[b]fluoren-9-one oxime]
5.27	C=CCON=C1c2ccccc2-c2nn3c(CCCC)nnc3nc21 (mixture of isomers) [5d, 3-Butyl-1,2,3a,4,10-pentaaza-cyclopenta[b]fluoren-9-one O-allyl-oxime]
